According to ChEMBL document CHEMBL1158322, “New Terpenylated Dihydrochalcone Derivatives Isolated from Mitrella kentii” (J Nat Prod, 1997):
≈ marks a conversion by molar mass, not a printed value.

tested on: NSCLC; experiment: Cytotoxicity against human NSCLC cells by MTT assay; type: functional, cell-based

`CC1=C[C@H](c2c(O)c(C(=O)CCc3ccccc3)c(O)c([C@H]3C=C(C)CC[C@H]3C(C)C)c2O)[C@H](C(C)C)CC1` [NEOLINDERATIN] and `CC1=C[C@H](c2c(O)c(C(=O)CCc3ccccc3)c(O)c([C@H]3C=C(C)CC[C@@H]3C(C)C)c2O)[C@@H](C(C)C)CC1` cannot be ordered by IC50: over 30 µg/mL for the first, over 30 µg/mL for the second.

Going from `CC1=C[C@H](c2c(O)cc(O)c(C(=O)CCc3ccccc3)c2O)[C@@H](C(C)C)CC1` to `CC1=C[C@H](c2c(O)cc(O)c(C(=O)CCc3ccccc3)c2O)[C@H](C(C)C)CC1` [LINDERATIN], the IC50 falls from over 30 µg/mL to 3.8 µg/mL (≈ 9.63 µM).
